Reference: BindingDB's records for doi:10.1021/jm030233b (Pharmacia, 2003)

Molecular target: Prothrombin (Homo sapiens, UniProt P00734)
Assay: Thrombin Assay
Conditions: pH 8; 22 °C
Protocol: Human thrombin and substrate were added to a 96-well assay plate containing inhibitor in reaction buffer. […] All compounds were assayed in duplicate at seven concentrations. Percent inhibition at each concentration was calculated from OD405nm value from the experimental and control sample. IC50 values were calculated from a four-parameter logistic regression equation.

Compound | IC50 [µM]
N=C(N)c1ccc(CNC(=O)Cc2c(-c3cccc(N)c3)ccc(NCc3ccccc3)c2F)cc1 [2-[6-(3-aminophenyl)-3-(benzylamino)-2-fluorophenyl]-N-[(4-carbamimidoylphenyl)methyl]acetamide] | 10
N=C(N)c1ccc(CNC(=O)Cc2c(F)ccc(NCCc3ccccc3)c2F)cc1 [N-[(4-carbamimidoylphenyl)methyl]-2-{2,6-difluoro-3-[(2-phenylethyl)amino]phenyl}acetamide] | 1.56
N=C(N)c1ccc(CNC(=O)Cc2c(F)ccc(NS(=O)(=O)Cc3ccccc3)c2F)cc1 [N-[(4-carbamimidoylphenyl)methyl]-2-[2,6-difluoro-3-(phenylmethanesulfonamido)phenyl]acetamide] | 26.9

The next lines start with the values.

IC50 [µM] | Compound
> 30 | CC(C)=Nc1cc(O)c(-c2ccccc2)c(CC(=O)NCc2ccc(C(=N)N)cc2)c1O [N-[(4-carbamimidoylphenyl)methyl]-2-[3,6-dioxo-2-phenyl-5-(propan-2-ylamino)cyclohexa-1,4-dien-1-yl]acetamide]
6.8 | N=C(N)c1ccc(CNC(=O)Cc2c(-c3ccccc3)ccc(NCCc3ccccc3)c2O)cc1 [N-[(4-carbamimidoylphenyl)methyl]-2-{2-hydroxy-6-phenyl-3-[(2-phenylethyl)amino]phenyl}acetamide]
